These results are taken from US7829568B2, “Substituted 5,6,7,8-tetrahydroimidazo[1,2-a]pyridin-2-ylamine compounds and their use for producing drugs” (Gruenenthal GmbH, priority 2005, dated 2010).

Structures are written as SMILES.

For the assay, the system named is batrachotoxin (BTX) binding site of the sodium channel. Briefly: Affinity to the batrachotoxin (BTX) binding site of the sodium channel. The following applies: [3H]-batrachotoxinin A20 α-benzoate 10 nM; synaptosomes from rat cerebral cortex; test concentration not given. More on the design: species or system rat.
`CCCCN(C(=O)c1ccc(F)c(F)c1)c1nc2n(c1C(=O)N(C)C1CCN(Cc3cc4ccccc4o3)C1)CCCC2` (centres unmarked) [Example 34, 2-[butyl-(3,4-difluoro-benzoyl)-amino]-5,6,7,8-tetrahydro-imidazo[1,2-a]pyridine-3-carboxylic acid (1-benzofuran-2-ylmethyl-pyrrolidin-3-yl)-methyl-amide]: the “BTX inhibition (rat) (% inhibition)” value came to 83%.
The same measure for `CCCCN(C(=O)c1ccc(F)c(F)c1)c1nc2n(c1C(=O)NC1CCCCC1OCc1ccccc1)CCCC2` (centres unmarked) [Example 161, 2-[butyl-(3,4-difluoro-benzoyl)-amino]-5,6,7,8-tetrahydro-imidazo[1,2-a]pyridine-3-carboxylic acid (2-benzyloxy-cyclohexyl)-amide]: 49%.
The same measure for `CCCCN(C(=O)c1cccc(Cl)c1)c1nc2n(c1C(=O)NC(c1ccccc1)c1ccccc1)CCCC2` [Example 147, 2-[butyl-(3-chloro-benzoyl)-amino]-5,6,7,8-tetrahydro-imidazo[1,2-a]pyridine-3-carboxylic acid benzhydryl-amide]: 56%.
As to `Cc1ccc(NC(=O)c2c(N(C)C(=O)Cc3ccccc3)nc3n2CCCC3)cc1` [Example 159, 2-(methyl-phenylacetyl-amino)-5,6,7,8-tetrahydro-imidazo[1,2-a]pyridine-3-carboxylic acid p-tolylamide], the “BTX inhibition (rat) (% inhibition)” value came to 37%.
Regarding `CCCCN(C(=O)c1ccc(F)c(F)c1)c1nc2n(c1C(=O)NC1CCC(C)CC1)CCCC2` (centres unmarked) [Example 16, 2-[butyl-(3,4-difluoro-benzoyl)-amino]-5,6,7,8-tetrahydro-imidazo[1,2-a]pyridine-3-carboxylic acid (4-methyl-cyclohexyl)-amide], the “BTX inhibition (rat) (% inhibition)” value was 47%.
